The text below walks through data of patent US20160106692A1 (priority 2014, published 2016).

“Also recorded” adds a separate entry of the source.

For assay [1], the system named is Influenza Virus A/California/07/2009 H1N1. The class given is cell-based.
The test system of assay [2] is Influenza Virus A/Maryland/04/2011 H1N1. It counts as cell-based.

For the molecule `CCOC(=O)C1=C[C@@H](OC(CC)CC)[C@H](NC(C)=O)[C@@H](N)C1` [Oseltamivir], the entries for the “plaque inhibition, result in words” value in assay [1] and in assay [2] were “sensitive to this drug to 1 μM; also recorded: showed inhibitory effects” and “only partially sensitive; also recorded: reduced oseltamivir susceptibility”, respectively.
